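In this assay, cells in 96-well plates receive the compound at five concentrations for 48 hours. Endpoints are linearly interpolated between the surrounding concentrations. GI50 marks 50% less growth.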 Calls of active or inactive are those of the source. Cut-off read from the data, not from the text of the source: active = GI50 up to about 1.1 µM and inactive = higher.
How the values were obtained:
Assay in all cases: growth of human tumour cells (NCI), 48 h
[1] = tested on: KM12
[2] = tested on: LOX IMVI
[3] = tested on: SK-OV-3
[4] = tested on: SF-268
[5] = tested on: RXF 393
[6] = tested on: SN12C
[7] = tested on: DMS-114
[8] = tested on: NCI-H522
[9] = tested on: M19-MEL
[10] = tested on: COLO 205
[11] = tested on: UO-31
[12] = tested on: HCT-15
[13] = tested on: HL-60
[14] = tested on: DMS-273
[15] = tested on: SK-MEL-5
[16] = tested on: UACC-257
[17] = tested on: NCI-H226
[18] = tested on: CCRF-CEM
[19] = tested on: MOLT-4
[20] = tested on: XF498
[21] = tested on: IGROV-1
[22] = tested on: UACC-62
[23] = tested on: K562
[24] = tested on: SK-MEL-2
[25] = tested on: NCI/ADR-RES
[26] = tested on: HOP-18
[27] = tested on: CAKI-1
[28] = tested on: SF-539
[29] = tested on: RPMI-8226
[30] = tested on: A549
[31] = tested on: A498
[32] = tested on: KM-20L2
[33] = tested on: OVCAR-5
[34] = tested on: DLD-1
[35] = tested on: EKVX
[36] = tested on: SW-620
[37] = tested on: SF-295
[38] = tested on: SNB-78
[39] = tested on: HT-29
[40] = tested on: U-251
[41] = tested on: SNB-19
[42] = tested on: OVCAR-8
[43] = tested on: MCF7
[44] = tested on: HOP-92
[45] = tested on: HCC 2998
[46] = tested on: HOP-62
[47] = tested on: OVCAR-4
[48] = tested on: NCI-H23
[49] = tested on: OVCAR-3
[50] = tested on: HCT-116
[51] = tested on: SK-MEL-28
[52] = tested on: SNB-75
[53] = tested on: Malme-3M
[54] = tested on: NCI-H460
[55] = tested on: LXFL 529
[56] = tested on: ACHN
[57] = tested on: M14
[58] = tested on: TK-10
[59] = tested on: 786-0
[60] = tested on: SR

Structure (SMILES): CN1C(=O)c2ccccc2NC(=O)c2cnn(C)c21
- GI50 [1]: > 100 µM (inactive)
- GI50 [2]: > 100 µM (inactive)
- GI50 [3]: > 100 µM (inactive)
- GI50 [4]: > 100 µM (inactive)
- GI50 [5]: > 100 µM (inactive)
- GI50 [6]: > 100 µM (inactive)
- GI50 [7]: > 100 µM (inactive)
- GI50 [8]: > 100 µM (inactive)
- GI50 [9]: > 100 µM (inactive)
- GI50 [10]: > 100 µM (inactive)
- GI50 [11]: > 100 µM (inactive)
- GI50 [12]: > 100 µM
- GI50 [13]: > 100 µM (inactive)
- GI50 [14]: > 100 µM (inactive)
- GI50 [15]: > 100 µM (inactive)
- GI50 [16]: > 100 µM (inactive)
- GI50 [17]: > 100 µM (inactive)
- GI50 [18]: > 100 µM (inactive)
- GI50 [19]: > 100 µM (inactive)
- GI50 [20]: > 100 µM (inactive)
- GI50 [21]: > 100 µM (inactive)
- GI50 [22]: > 100 µM (inactive)
- GI50 [23]: > 100 µM (inactive)
- GI50 [24]: > 100 µM (inactive)
- GI50 [25]: > 100 µM (inactive)
- GI50 [26]: > 100 µM (inactive)
- GI50 [27]: > 100 µM (inactive)
- GI50 [28]: > 100 µM (inactive)
- GI50 [29]: > 100 µM (inactive)
- GI50 [30]: > 100 µM (inactive)
- GI50 [31]: > 100 µM (inactive)
- GI50 [32]: > 100 µM (inactive)
- GI50 [33]: > 100 µM (inactive)
- GI50 [34]: > 100 µM (inactive)
- GI50 [35]: > 100 µM (inactive)
- GI50 [36]: > 100 µM (inactive)
- GI50 [37]: > 100 µM (inactive)
- GI50 [38]: > 100 µM (inactive)
- GI50 [39]: > 100 µM (inactive)
- GI50 [40]: > 100 µM (inactive)
- GI50 [41]: > 100 µM (inactive)
- GI50 [42]: > 100 µM (inactive)
- GI50 [43]: > 100 µM (inactive)
- GI50 [44]: > 100 µM (inactive)
- GI50 [45]: > 100 µM (inactive)
- GI50 [46]: > 100 µM (inactive)
- GI50 [47]: > 100 µM (inactive)
- GI50 [48]: > 100 µM (inactive)
- GI50 [49]: > 100 µM (inactive)
- GI50 [50]: > 21.6 µM (inactive)
- GI50 [51]: > 100 µM (inactive)
- GI50 [52]: > 100 µM (inactive)
- GI50 [53]: > 100 µM (inactive)
- GI50 [54]: > 100 µM (inactive)

Structure (SMILES): O=C(CSc1nnc(-c2ccc(/N=C\c3ccc(Cl)cc3)cc2)o1)Nc1ccccc1[N+](=O)[O-]
- GI50 [55]: > 100 µM (inactive)
- GI50 [1]: > 100 µM (inactive)
- GI50 [2]: > 100 µM (inactive)
- GI50 [3]: > 100 µM (inactive)
- GI50 [4]: > 100 µM (inactive)
- GI50 [5]: 94.6 µM (inactive)
- GI50 [6]: > 100 µM (inactive)
- GI50 [7]: > 100 µM (inactive)
- GI50 [8]: > 100 µM (inactive)
- GI50 [56]: > 100 µM (inactive)
- GI50 [9]: > 100 µM (inactive)
- GI50 [10]: > 100 µM (inactive)
- GI50 [11]: > 100 µM (inactive)
- GI50 [12]: > 100 µM
- GI50 [13]: > 100 µM (inactive)
- GI50 [14]: > 100 µM (inactive)
- GI50 [15]: > 100 µM (inactive)
- GI50 [16]: > 100 µM (inactive)
- GI50 [17]: > 100 µM (inactive)
- GI50 [18]: > 100 µM (inactive)
- GI50 [19]: > 100 µM (inactive)
- GI50 [20]: > 100 µM (inactive)
- GI50 [57]: > 100 µM (inactive)
- GI50 [22]: > 100 µM (inactive)
- GI50 [23]: > 100 µM (inactive)
- GI50 [24]: > 100 µM (inactive)
- GI50 [58]: > 100 µM (inactive)
- GI50 [26]: > 100 µM (inactive)
- GI50 [29]: > 100 µM (inactive)
- GI50 [30]: > 100 µM (inactive)
- GI50 [32]: > 100 µM (inactive)
- GI50 [59]: > 100 µM (inactive)
- GI50 [35]: > 100 µM (inactive)
- GI50 [36]: > 100 µM (inactive)
- GI50 [37]: > 100 µM (inactive)
- GI50 [60]: > 100 µM (inactive)
- GI50 [38]: > 100 µM (inactive)
- GI50 [39]: > 100 µM (inactive)
- GI50 [40]: > 100 µM (inactive)
- GI50 [41]: > 100 µM (inactive)
- GI50 [42]: > 100 µM (inactive)
- GI50 [46]: > 100 µM (inactive)
- GI50 [47]: > 100 µM (inactive)
- GI50 [48]: > 100 µM (inactive)
- GI50 [50]: > 100 µM (inactive)
- GI50 [51]: > 100 µM (inactive)
- GI50 [52]: > 100 µM (inactive)
- GI50 [53]: > 100 µM (inactive)
- GI50 [54]: > 100 µM (inactive)
